Test results as given in US20250325467A1, “COMPOSITIONS FOR PREVENTING OR TREATING SKIN AGING” (ESTETRA SRL, priority 2021, published 2025).

Columns and labels:
[1] = Tissue distribution (QWBA) of [^14C]-estetrol after a single oral dose in partially pigmented rats; details: for Concentration of radioactivity, Skin: Non-pigmented / Concentration of radioactivity, Skin: Pigmented / Tissue:Blood ratio, Skin: Non-pigmented / Tissue:Blood ratio, Skin: Pigmented / Total amount of radioactivity, Skin (non-pigmented) / Total amount of radioactivity, Skin (pigmented): single oral 15 mg/kg
Method: Tissue distribution was determined in female rats (partially pigmented and non-pigmented) using [^14C]-estetrol.
A group of six female Lister Hooded rats each received a single oral dose of [^14C]-estetrol. At each selected time (see below) one animal was killed (by overdose of CO2) followed by immediate snap freezing in hexane/solid CO2. The carcasses were retained for examination of the tissue distribution of radioactivity using the technique of quantitative whole body autoradiography (QWBA).
Times for analysis were: (0.5, 8, and 24 hours, 7, 14 and 35 days)
Frozen carcasses were subjected to whole-body autoradiography.
Where concentrations are reported, radioactivity was assumed to be associated with [^14C]-estetrol or any metabolic products derived from [^14C]-estetrol. The specific activities of the dosed test compounds were used for the calculation of concentrations in all cases. Recoveries of radioactivity are reported as percentage of administered radioactivity (% dose). Radioactivity concentrations are also reported as pg equivalents/g.

[2] = Tissue distribution (QWBA) of [^14C]-estetrol after a single oral dose in non-pigmented rats; assay type: in vivo, rat; details: for Concentration of radioactivity, Skin: Non-pigmented / Tissue:Blood ratio, Skin: Non-pigmented: non-pigmented rats, single oral 15 mg/kg
Method: Times for analysis were: 0.5, 1, 2, 5, 8, 24 and 48 hours
Distribution of radioactivity in tissues was determined and quantified using the Fuji FLA-5100 fluorescent image analyser and associated Tina and SeeScan software. Tissue concentrations of radioactivity were determined using calibrated autoradiographic microscales produced by GE Healthcare. A standard curve was produced using the microscales from which tissue concentrations of radioactivity were determined (nCi/g). These values were then converted into pg equivalents/g using the specific activity of the dose formulation.
Radioactivity concentrations are also reported as […] equivalents/g.

[3] = as above; assay type: in vivo; details: single oral 15 mg/kg, 3 hour (Rat 08F)
[4] = partially pigmented rats, 0.5 hours
[5] = partially pigmented rats, 8 hours
[6] = partially pigmented rats, 24 hours
[7] = partially pigmented rats, 7 days
[8] = partially pigmented rats, 14 days
[9] = partially pigmented rats, 35 days

[^14C]-estetrol
concentration of radioactivity, liver (greatest concentration) ([1]; female partially pigmented rats, single oral dose, 0.5 hours): 13.7 μg equivalents/g | Concentration of radioactivity, Skin: Non-pigmented [1, 4]: 1.89 microgram equivalents/gram | Concentration of radioactivity, Skin: Pigmented [1, 4]: 2.85 microgram equivalents/gram | Tissue:Blood ratio, Skin: Non-pigmented [1, 4]: 0.71 | Tissue:Blood ratio, Skin: Pigmented [1, 4]: 1.07 | Total amount of radioactivity, Skin (non-pigmented) [1, 4]: 1.136 % dose administered/tissue | Total amount of radioactivity, Skin (pigmented) [1, 4]: 1.714 % dose administered/tissue | Concentration of radioactivity, Skin: Non-pigmented [1, 5]: 0.090 microgram equivalents/gram | Concentration of radioactivity, Skin: Pigmented [1, 5]: 0.161 microgram equivalents/gram | Tissue:Blood ratio, Skin: Non-pigmented [1, 5]: 0.56 | Tissue:Blood ratio, Skin: Pigmented [1, 5]: 1.01 | Total amount of radioactivity, Skin (non-pigmented) [1, 5]: 0.059 % dose administered/tissue | Total amount of radioactivity, Skin (pigmented) [1, 5]: 0.099 % dose administered/tissue | Concentration of radioactivity, Skin: Non-pigmented [1, 6]: BLQ | Concentration of radioactivity, Skin: Pigmented [1, 6]: 0.113 microgram equivalents/gram | Total amount of radioactivity, Skin (non-pigmented) [1, 6]: <0.041 % dose administered/tissue | Total amount of radioactivity, Skin (pigmented) [1, 6]: 0.061 % dose administered/tissue | Concentration of radioactivity, Skin: Non-pigmented [1, 7]: BLQ | Concentration of radioactivity, Skin: Pigmented [1, 7]: BLQ | Total amount of radioactivity, Skin (non-pigmented) [1, 7]: <0.043 % dose administered/tissue | Total amount of radioactivity, Skin (pigmented) [1, 7]: <0.043 % dose administered/tissue | Concentration of radioactivity, Skin: Non-pigmented [1, 8]: BLQ | Concentration of radioactivity, Skin: Pigmented [1, 8]: BLQ | Total amount of radioactivity, Skin (non-pigmented) [1, 8]: <0.038 % dose administered/tissue | Total amount of radioactivity, Skin (pigmented) [1, 8]: <0.038 % dose administered/tissue | Concentration of radioactivity, Skin: Non-pigmented [1, 9]: BLQ | Concentration of radioactivity, Skin: Pigmented [1, 9]: BLQ | Total amount of radioactivity, Skin (non-pigmented) [1, 9]: <0.041 % dose administered/tissue | Total amount of radioactivity, Skin (pigmented) [1, 9]: <0.041 % dose administered/tissue | concentration of radioactivity, liver ([1]; partially pigmented rats, single oral dose, 7 days after dosing): 0.410 μg equivalents/g | concentration of radioactivity, majority of tissues (BLQ) ([1]; partially pigmented rats, single oral dose, by 24 hours): < 0.076 μg equivalents/g | concentration of radioactivity, all analyzed tissues except liver, including uveal tract and pigmented skin ([1]; partially pigmented rats, single oral dose, by 7 days): at or below the limit of quantification | concentration of radioactivity, liver (greatest concentration) ([2]; female non-pigmented rats, single oral dose, 0.5 hours): 12.5 microgram equivalents/gram | Concentration of radioactivity, Skin: Non-pigmented ([2]; 0.5 hours): 2.59 microgram equivalents/gram | Tissue:Blood ratio, Skin: Non-pigmented ([2]; 0.5 hours): 1.05 | Concentration of radioactivity, Skin: Non-pigmented ([2]; 1 hour): 0.771 microgram equivalents/gram | Concentration of radioactivity, Skin: Non-pigmented ([2]; 2 hours): 0.465 microgram equivalents/gram | Tissue:Blood ratio, Skin: Non-pigmented ([2]; 2 hours): 1.72 | Concentration of radioactivity, Skin: Non-pigmented ([2]; 5 hours): 0.189 microgram equivalents/gram | Tissue:Blood ratio, Skin: Non-pigmented ([2]; 5 hours): 1.66 | Concentration of radioactivity, Skin: Non-pigmented ([2]; 8 hours): 0.361 microgram equivalents/gram | Tissue:Blood ratio, Skin: Non-pigmented ([2]; 8 hours): 1.77 | Concentration of radioactivity, Skin: Non-pigmented ([2]; 24 hours): BLQ | Concentration of radioactivity, Skin: Non-pigmented ([2]; 48 hours): BLQ | Tissue:Blood ratio, Skin: Non-pigmented [3]: 0.99
